Assay results taken from ChEMBL document CHEMBL1144513, “Synthesis and SAR study of novel 7-(pyridinium-3-yl)-carbonyl imidazo[5,1-b]thiazol-2-yl carbapenems” (2007).
Converted amounts (≈) assume the structure as drawn.

Experiments:
Assay type in all cases: functional
Haemophilus influenzae = assay: Antibacterial activity against beta-lactamase-negative ampicillin-resistant Haemophilus influenzae 870 by agar dilution method
Moraxella catarrhalis = assay: Antibacterial activity against Moraxella catarrhalis W-0500 by agar dilution method
Klebsiella pneumoniae = assay: Antibacterial activity against Klebsiella pneumoniae GN69 by agar dilution method
Escherichia coli = assay: Antibacterial activity against Escherichia coli NIHJ JC2 by agar dilution method
Staphylococcus aureus [1] = assay: Antibacterial activity against methicillin-resistant Staphylococcus aureus M126 by agar dilution method
Staphylococcus aureus [2] = assay: Antibacterial activity against carbapenem and methicillin-resistant Staphylococcus aureus M126HR by agar dilution method
Staphylococcus aureus [3] = assay: Antibacterial activity against Staphylococcus aureus 209P JC1 by agar dilution method
Streptococcus pneumoniae = assay: Antibacterial activity against penicillin-resistant Streptococcus pneumoniae KK133 by agar dilution method

SMILES	MIC (Haemophilus influenzae) [µg/mL]	MIC (Moraxella catarrhalis) [µg/mL]	MIC (Klebsiella pneumoniae) [µg/mL]	MIC (Escherichia coli) [µg/mL]	MIC (Staphylococcus aureus [1]) [µg/mL]	MIC (Staphylococcus aureus [2]) [µg/mL]	MIC (Staphylococcus aureus [3]) [µg/mL]	MIC (Streptococcus pneumoniae) [µg/mL]
C[C@@H](O)[C@H]1C(=O)N2C(C(=O)[O-])=C(c3cn4cnc(C(=O)c5ccc[n+](Cc6ccccc6)c5)c4s3)[C@H](C)[C@H]12	0.063 (≈ 0.119 µM)	0.063 (≈ 0.119 µM)	1 (≈ 1.89 µM)	0.5 (≈ 0.946 µM)	0.5 (≈ 0.946 µM)	4 (≈ 7.57 µM)	≤ 0.008	0.016 (≈ 0.0303 µM)
C[C@@H](O)[C@H]1C(=O)N2C(C(=O)O)=C(c3cn4cnc(C(=O)c5cn(C)c6ccccc56)c4s3)[C@H](C)[C@H]12	0.125 (≈ 0.255 µM)	0.016 (≈ 0.0326 µM)	8 (≈ 16.3 µM)	4 (≈ 8.15 µM)	0.031 (≈ 0.0632 µM)	8 (≈ 16.3 µM)	0.008 (≈ 0.0163 µM)	0.125 (≈ 0.255 µM)
CN[C@H](CC(C)C)C(=O)N[C@H]1C(=O)N[C@@H](CC(N)=O)C(=O)N[C@H]2C(=O)N[C@H]3C(=O)N[C@H](C(=O)N[C@H](C(=O)O)c4cc(O)cc(O)c4-c4cc3ccc4O)[C@H](O)c3ccc(c(Cl)c3)Oc3cc2cc(c3O[C@@H]2O[C@H](CO)[C@@H](O)[C@H](O)[C@H]2O[C@H]2C[C@](C)(N)[C@H](O)[C@H](C)O2)Oc2ccc(cc2Cl)[C@H]1O [VANCOMYCIN]	> 128	64 (≈ 44.2 µM)	> 128	> 128	–	–	–	0.5 (≈ 0.345 µM)
C[C@@H](O)[C@H]1C(=O)N2C(C(=O)[O-])=C(c3cn4cnc(C(=O)c5ccc[n+](C)c5)c4s3)[C@H](C)[C@H]12	0.063 (≈ 0.139 µM)	0.031 (≈ 0.0685 µM)	0.063 (≈ 0.139 µM)	0.063 (≈ 0.139 µM)	1 (≈ 2.21 µM)	4 (≈ 8.84 µM)	≤ 0.008	0.031 (≈ 0.0685 µM)
C[C@@H](O)[C@H]1C(=O)N2C(C(=O)[O-])=C(c3cn4c(N5CCOCC5)nc(C(=O)c5ccc[n+](CC(N)=O)c5)c4s3)[C@H](C)[C@H]12	0.125 (≈ 0.215 µM)	0.063 (≈ 0.109 µM)	16 (≈ 27.6 µM)	16 (≈ 27.6 µM)	2 (≈ 3.44 µM)	8 (≈ 13.8 µM)	0.031 (≈ 0.0534 µM)	0.063 (≈ 0.109 µM)
C[C@@H](O)[C@H]1C(=O)N2C(C(=O)[O-])=C(c3cn4cnc(C(=O)c5ccc[n+](CC(=O)O)c5)c4s3)[C@H](C)[C@H]12	0.063 (≈ 0.127 µM)	0.031 (≈ 0.0624 µM)	0.063 (≈ 0.127 µM)	0.031 (≈ 0.0624 µM)	2 (≈ 4.03 µM)	8 (≈ 16.1 µM)	0.031 (≈ 0.0624 µM)	0.063 (≈ 0.127 µM)
C[C@@H](O)[C@H]1C(=O)N2C(C(=O)[O-])=C(c3cn4c(Cl)nc(C(=O)c5ccc[n+](CC(N)=O)c5)c4s3)[C@H](C)[C@H]12	0.063 (≈ 0.119 µM)	0.016 (≈ 0.0302 µM)	2 (≈ 3.77 µM)	1 (≈ 1.89 µM)	0.5 (≈ 0.943 µM)	2 (≈ 3.77 µM)	0.008 (≈ 0.0151 µM)	0.031 (≈ 0.0585 µM)
C[C@@H](O)[C@H]1C(=O)N2C(C(=O)O)=C(c3cn4cnc(C(=O)[C@@H]5C[C@@H](O)CN5)c4s3)[C@H](C)[C@H]12	0.125 (≈ 0.28 µM)	0.031 (≈ 0.0694 µM)	0.125 (≈ 0.28 µM)	0.063 (≈ 0.141 µM)	1 (≈ 2.24 µM)	4 (≈ 8.96 µM)	0.016 (≈ 0.0358 µM)	0.063 (≈ 0.141 µM)
Cc1nc(C(=O)c2ccc[n+](CC(N)=O)c2)c2sc(C3=C(C(=O)[O-])N4C(=O)[C@H]([C@@H](C)O)[C@H]4[C@H]3C)cn12	0.063 (≈ 0.124 µM)	0.008 (≈ 0.0157 µM)	0.5 (≈ 0.981 µM)	0.25 (≈ 0.491 µM)	1 (≈ 1.96 µM)	4 (≈ 7.85 µM)	0.016 (≈ 0.0314 µM)	0.031 (≈ 0.0608 µM)
C[C@@H](O)[C@H]1C(=O)N2C(C(=O)[O-])=C(c3cn4cnc(C(=O)c5ccc[n+](CC(N)=O)c5)c4s3)[C@H](C)[C@H]12	0.063 (≈ 0.127 µM)	0.016 (≈ 0.0323 µM)	0.063 (≈ 0.127 µM)	0.031 (≈ 0.0626 µM)	0.5 (≈ 1.01 µM)	2 (≈ 4.04 µM)	≤ 0.008	0.031 (≈ 0.0626 µM)
CCc1nc(C(=O)c2ccc[n+](CC(N)=O)c2)c2sc(C3=C(C(=O)[O-])N4C(=O)[C@H]([C@@H](C)O)[C@H]4[C@H]3C)cn12	0.063 (≈ 0.12 µM)	0.031 (≈ 0.0592 µM)	4 (≈ 7.64 µM)	2 (≈ 3.82 µM)	1 (≈ 1.91 µM)	4 (≈ 7.64 µM)	0.016 (≈ 0.0306 µM)	0.031 (≈ 0.0592 µM)
C[C@@H](O)[C@H]1C(=O)N2C(C(=O)[O-])=C(c3cn4cnc(C(=O)c5ccc[n+](CCN(C)C)c5)c4s3)[C@H](C)[C@H]12	0.063 (≈ 0.124 µM)	0.031 (≈ 0.0608 µM)	0.25 (≈ 0.491 µM)	0.125 (≈ 0.245 µM)	1 (≈ 1.96 µM)	4 (≈ 7.85 µM)	≤ 0.008	0.031 (≈ 0.0608 µM)
C[C@@H](O)[C@H]1C(=O)N2C(C(=O)O)=C(c3cn4cnc(C(=O)c5cccs5)c4s3)[C@H](C)[C@H]12	0.125 (≈ 0.282 µM)	0.016 (≈ 0.0361 µM)	4 (≈ 9.02 µM)	2 (≈ 4.51 µM)	0.031 (≈ 0.0699 µM)	4 (≈ 9.02 µM)	≤ 0.008	0.125 (≈ 0.282 µM)
C[C@@H](O)[C@H]1C(=O)N2C(C(=O)[O-])=C(c3cn4cnc(C(=O)c5ccc[n+](CCNS(N)(=O)=O)c5)c4s3)[C@H](C)[C@H]12	0.063 (≈ 0.112 µM)	0.016 (≈ 0.0285 µM)	0.063 (≈ 0.112 µM)	0.031 (≈ 0.0553 µM)	1 (≈ 1.78 µM)	2 (≈ 3.57 µM)	≤ 0.008	0.031 (≈ 0.0553 µM)
CSc1c2sc(C3=C(C(=O)[O-])N4C(=O)[C@H]([C@@H](C)O)[C@H]4[C@H]3C)cn2c[n+]1CC(N)=O	0.5 (≈ 1.15 µM)	0.031 (≈ 0.071 µM)	0.031 (≈ 0.071 µM)	0.016 (≈ 0.0367 µM)	1 (≈ 2.29 µM)	4 (≈ 9.16 µM)	0.008 (≈ 0.0183 µM)	0.031 (≈ 0.071 µM)
CCOC(=O)C[n+]1cccc(C(=O)c2ncn3cc(C4=C(C(=O)[O-])N5C(=O)[C@H]([C@@H](C)O)[C@H]5[C@H]4C)sc23)c1	0.063 (≈ 0.12 µM)	0.031 (≈ 0.0591 µM)	0.063 (≈ 0.12 µM)	0.031 (≈ 0.0591 µM)	2 (≈ 3.81 µM)	8 (≈ 15.3 µM)	0.016 (≈ 0.0305 µM)	0.063 (≈ 0.12 µM)
CSc1nc(C(=O)c2ccc[n+](CC(N)=O)c2)c2sc(C3=C(C(=O)[O-])N4C(=O)[C@H]([C@@H](C)O)[C@H]4[C@H]3C)cn12	0.031 (≈ 0.0572 µM)	0.016 (≈ 0.0295 µM)	4 (≈ 7.39 µM)	4 (≈ 7.39 µM)	0.5 (≈ 0.923 µM)	1 (≈ 1.85 µM)	0.008 (≈ 0.0148 µM)	0.016 (≈ 0.0295 µM)
C[C@@H](O)[C@H]1C(=O)N2C(C(=O)O)=C(c3cn4cnc(C(=O)c5cnc6ccccc6c5)c4s3)[C@H](C)[C@H]12	0.125 (≈ 0.256 µM)	0.031 (≈ 0.0635 µM)	8 (≈ 16.4 µM)	4 (≈ 8.19 µM)	0.016 (≈ 0.0328 µM)	2 (≈ 4.09 µM)	≤ 0.008	0.031 (≈ 0.0635 µM)
C[C@@H](O)[C@H]1C(=O)N2C(C(=O)O)=C(c3cn4cnc(C(=O)[C@@H]5CCCN5)c4s3)[C@H](C)[C@H]12	0.125 (≈ 0.29 µM)	0.031 (≈ 0.072 µM)	0.125 (≈ 0.29 µM)	0.125 (≈ 0.29 µM)	1 (≈ 2.32 µM)	4 (≈ 9.29 µM)	≤ 0.008	0.063 (≈ 0.146 µM)
C[C@@H](O)[C@H]1C(=O)N2C(C(=O)[O-])=C(c3cn4cnc(C(=O)c5ccc[n+](CC(=O)C(F)(F)F)c5)c4s3)[C@H](C)[C@H]12	0.063 (≈ 0.115 µM)	0.031 (≈ 0.0565 µM)	0.25 (≈ 0.456 µM)	0.125 (≈ 0.228 µM)	1 (≈ 1.82 µM)	4 (≈ 7.29 µM)	0.016 (≈ 0.0292 µM)	0.063 (≈ 0.115 µM)
C[C@@H](O)[C@H]1C(=O)N2C(C(=O)O)=C(c3cn4cnc(C(=O)c5cncs5)c4s3)[C@H](C)[C@H]12	0.063 (≈ 0.142 µM)	0.016 (≈ 0.036 µM)	2 (≈ 4.5 µM)	1 (≈ 2.25 µM)	0.031 (≈ 0.0697 µM)	4 (≈ 9 µM)	≤ 0.008	0.031 (≈ 0.0697 µM)
COCc1nc(C(=O)c2ccc[n+](CC(N)=O)c2)c2sc(C3=C(C(=O)[O-])N4C(=O)[C@H]([C@@H](C)O)[C@H]4[C@H]3C)cn12	0.063 (≈ 0.117 µM)	0.031 (≈ 0.0575 µM)	4 (≈ 7.41 µM)	8 (≈ 14.8 µM)	2 (≈ 3.71 µM)	4 (≈ 7.41 µM)	0.031 (≈ 0.0575 µM)	0.063 (≈ 0.117 µM)
C[C@@H](O)[C@H]1C(=O)N2C(C(=O)O)=C(c3cn4cnc(C(=O)c5ccncc5)c4s3)[C@H](C)[C@H]12	0.031 (≈ 0.0707 µM)	0.031 (≈ 0.0707 µM)	2 (≈ 4.56 µM)	2 (≈ 4.56 µM)	0.063 (≈ 0.144 µM)	4 (≈ 9.12 µM)	≤ 0.008	0.031 (≈ 0.0707 µM)
C[C@@H](O)[C@H]1C(=O)N2C(C(=O)[O-])=C(c3cn4cnc(C(=O)c5ccc[n+](CCS(C)(=O)=O)c5)c4s3)[C@H](C)[C@H]12	0.063 (≈ 0.116 µM)	0.016 (≈ 0.0294 µM)	0.5 (≈ 0.918 µM)	0.5 (≈ 0.918 µM)	1 (≈ 1.84 µM)	4 (≈ 7.34 µM)	≤ 0.008	0.031 (≈ 0.0569 µM)
CC(=O)C[n+]1cccc(C(=O)c2ncn3cc(C4=C(C(=O)[O-])N5C(=O)[C@H]([C@@H](C)O)[C@H]5[C@H]4C)sc23)c1	0.063 (≈ 0.127 µM)	0.031 (≈ 0.0627 µM)	0.25 (≈ 0.506 µM)	0.125 (≈ 0.253 µM)	1 (≈ 2.02 µM)	4 (≈ 8.09 µM)	0.016 (≈ 0.0324 µM)	0.063 (≈ 0.127 µM)
C[C@@H](O)[C@H]1C(=O)N2C(C(=O)O)=C(c3cn4cnc(C(=O)C5CCNCC5)c4s3)[C@H](C)[C@H]12	0.063 (≈ 0.142 µM)	0.031 (≈ 0.0697 µM)	0.125 (≈ 0.281 µM)	0.063 (≈ 0.142 µM)	1 (≈ 2.25 µM)	4 (≈ 9 µM)	0.008 (≈ 0.018 µM)	0.063 (≈ 0.142 µM)
C[C@@H](O)[C@H]1C(=O)N2C(C(=O)O)=C(c3cn4cnc(C(=O)c5cccnc5)c4s3)[C@H](C)[C@H]12	0.031 (≈ 0.0707 µM)	0.016 (≈ 0.0365 µM)	2 (≈ 4.56 µM)	1 (≈ 2.28 µM)	1 (≈ 2.28 µM)	4 (≈ 9.12 µM)	≤ 0.008	0.031 (≈ 0.0707 µM)
C[C@@H](O)[C@H]1C(=O)N2C(C(=O)O)=C(c3cn4cnc(C(=O)C5CCCCN5)c4s3)[C@H](C)[C@H]12 (stereo partly specified)	0.25 (≈ 0.562 µM)	0.063 (≈ 0.142 µM)	0.25 (≈ 0.562 µM)	0.125 (≈ 0.281 µM)	1 (≈ 2.25 µM)	4 (≈ 9 µM)	0.016 (≈ 0.036 µM)	0.125 (≈ 0.281 µM)
